Experimental data taken from patent publication US9440982B2 (Eolas Therapeutics, Inc., priority 2012, dated 2016).
Read-outs that look alike come from different tables or passages of the source.

Tests used:
OX1 = target: T1, OX1 (Homo sapiens, UniProt O43613); experiment: Orexin receptor cell-based functional assay, [Ca2+]i by FLIPR, CHO-OX1 cells
T1 construct: expressed in transfected cells; host or cells: CHO (CHO-OX1, kept under selection antibiotic)
T1 sequence (O43613 1-425): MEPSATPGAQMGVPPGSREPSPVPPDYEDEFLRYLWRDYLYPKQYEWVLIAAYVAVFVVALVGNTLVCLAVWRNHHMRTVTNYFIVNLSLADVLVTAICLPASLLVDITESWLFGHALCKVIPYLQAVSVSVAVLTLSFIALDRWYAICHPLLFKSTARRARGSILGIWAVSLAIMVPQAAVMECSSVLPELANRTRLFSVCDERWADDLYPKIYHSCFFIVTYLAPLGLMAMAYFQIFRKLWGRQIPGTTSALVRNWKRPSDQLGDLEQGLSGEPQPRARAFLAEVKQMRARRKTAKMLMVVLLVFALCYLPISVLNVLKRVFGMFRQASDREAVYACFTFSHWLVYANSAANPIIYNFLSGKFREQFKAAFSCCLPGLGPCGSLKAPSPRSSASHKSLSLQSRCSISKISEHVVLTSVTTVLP
How it was run: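 Antagonist mode FLIPR calcium read in CHO-OX1 and CHO-OX2 lines. Test compounds, dosed 0.1 nM-10 μM, preincubated 30 min after 37° C dye loading with 2.5 mM probenecid (calcium4 for 30 min or calcium6 for 2 h).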

CYP3A4 = target: T2, CYP3A4 (Homo sapiens, UniProt P08684); experiment: Cytochrome P450 inhibition assay (midazolam hydroxylation); format: in vitro ADME; conditions: human, human liver microsomes, probe midazolam (hydroxylation to 1′-hydroxymidazolam), 10 μM test compound, midazolam at approximately its Km
T2 construct: pre-incubated with human liver microsomes and NADPH; from tissue; host or cells: human liver microsomes
How it was run: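 Percent inhibition of midazolam 1′-hydroxylation by 10 μM compound was measured, midazolam dosed at about Km. Time-dependent inhibition was probed by a 30 min preincubation of compound with human liver microsomes and NADPH ahead of substrate, compared against samples without preincubation.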

[1] = CHO-OX1 cells, [Ca2+]i by FLIPR, antagonist dose-range 0.1 nM-10 μM, EC90 of OXA, read-out: OX1

T2 sequence (P08684 whole entry): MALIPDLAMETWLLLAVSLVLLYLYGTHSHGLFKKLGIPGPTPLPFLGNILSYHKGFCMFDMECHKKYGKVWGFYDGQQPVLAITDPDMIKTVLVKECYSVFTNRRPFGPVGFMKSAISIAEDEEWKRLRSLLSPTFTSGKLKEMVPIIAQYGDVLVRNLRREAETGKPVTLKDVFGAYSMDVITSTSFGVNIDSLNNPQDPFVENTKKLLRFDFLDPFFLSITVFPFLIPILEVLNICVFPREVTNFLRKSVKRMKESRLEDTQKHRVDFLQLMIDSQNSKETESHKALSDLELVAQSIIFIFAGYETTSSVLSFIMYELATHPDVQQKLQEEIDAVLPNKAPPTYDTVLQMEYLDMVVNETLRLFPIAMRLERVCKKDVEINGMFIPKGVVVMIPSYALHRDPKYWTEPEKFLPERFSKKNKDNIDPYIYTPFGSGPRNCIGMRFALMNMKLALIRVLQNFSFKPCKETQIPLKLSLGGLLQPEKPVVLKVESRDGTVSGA

SMILES: Cc1nc(C(=O)N2CCC[C@@H](C)[C@H]2CNc2ccc(C(F)(F)F)cn2)c(-c2ccc(F)cc2)s1 [Example A85, (5-(4-Fluorophenyl)-2-methylthiazol-4-yl)((2S,3R)-3-methyl-2-(((5-(trifluoromethyl)pyridin-2-yl)amino)methyl)piperidin-1-yl)methanone]
- IC50 (OX1; [1]): 2 nM
- IC50 (OX1; Table 6, racemate vs enantiomers, read-out: OX1 IC50): 2 nM
- inhibition at 10 µM (CYP3A4): 9%

SMILES: Cc1ccc(-n2cnc(C)n2)c(C(=O)N2CCC[C@@H](C)[C@H]2CNc2nc3cc(Cl)ccc3o2)c1 [Example A29, ((2S,3R)-2-(((5-Chlorobenzo[d]oxazol-2-yl)amino)methyl)-3-methylpiperidin-1-yl)(5-methyl-2-(3-methyl-1H-1,2,4-triazol-1-yl)phenyl)methanone]
- IC50 (OX1; [1]): 87 nM
- inhibition at 10 µM (CYP3A4): 91%

SMILES: Cc1ccc(-n2ccc(C)n2)c(C(=O)N2CCC[C@@H](C)[C@H]2CNc2ccc(C(F)(F)F)nn2)c1 [Example A130, ((2S,3R)-3-Methyl-2-(((6-(trifluoromethyl)pyridazin-3-yl)amino)methyl)piperidin-1-yl)(5-methyl-2-(3-methyl-1H-pyrazol-1-yl)phenyl)methanone]
- IC50 (OX1; [1]): 21 nM
- inhibition at 10 µM (CYP3A4): 86%

SMILES: Cc1ccc(-n2cccn2)c(C(=O)N2CCC[C@@H](C)[C@H]2CNc2ccc(C)nn2)c1 [Example A154, ((2S,3R)-3-Methyl-2-(((6-methylpyridazin-3-yl)amino)methyl)piperidin-1-yl)(5-methyl-2-(1H-pyrazol-1-yl)phenyl)methanone]
- IC50 (OX1; [1]): > 1000 nM
- inhibition at 10 µM (CYP3A4): 43%

SMILES: C[C@@H]1CCCN(C(=O)c2cccc(F)c2-n2nccn2)[C@@H]1CNc1ncc(C(F)(F)F)cn1 [Example A256, (3-Fluoro-2-(2H-1,2,3-triazol-2-yl)phenyl)((2S,3R)-3-methyl-2-(((5-(trifluoromethyl)pyrimidin-2-yl)amino)methyl)piperidin-1-yl)methanone]
- inhibition at 10 µM (CYP3A4): 52%

SMILES: Cc1ccc(C#N)c(C(=O)N2CCC[C@@H](C)[C@H]2CNc2ccc(C(F)(F)F)cn2)c1 [Example A22, 4-Methyl-2-((2S,3R)-3-methyl-2-(((5-(trifluoromethyl)pyridin-2-yl)amino)methyl)piperidine-1-carbonyl)benzonitrile]
- inhibition at 10 µM (CYP3A4): 72%

SMILES: Cc1ccc(-c2cnn(C)c2)c(C(=O)N2CCC[C@@H](C)[C@H]2CNc2ccc(C(F)(F)F)cn2)n1 [Example A74, ((2S,3R)-3-Methyl-2-(((5-(trifluoromethyl)pyridin-2-yl)amino)methyl)piperidin-1-yl)(6-methyl-3-(1-methyl-H-pyrazol-4-yl)pyridin-2-yl)methanone]
- inhibition at 10 µM (CYP3A4): 74%

SMILES: Cc1ccc(-n2nccn2)c(C(=O)N2CCC[C@@H](C)[C@H]2CNc2ccc(C3CC3)cn2)c1 [Example A136, ((2S,3R)-2-(((5-Cyclopropylpyridin-2-yl)amino)methyl)-3-methylpiperidin-1-yl)(5-methyl-2-(2H-1,2,3-triazol-2-yl)phenyl)methanone]
- inhibition at 10 µM (CYP3A4): 91%

SMILES: Cc1ccc(-n2ccc(C)n2)c(C(=O)N2CCC[C@@H](C)[C@H]2CNc2ncc(C#N)cn2)c1 [Example A131, 2-((((2S,3R)-3-Methyl-1-(5-methyl-2-(3-methyl-1H-pyrazol-1-yl)benzoyl)piperidin-2-yl)methyl)amino)pyrimidine-5-carbonitrile]
- inhibition at 10 µM (CYP3A4): 84%

SMILES: Cc1ccc(-n2cccn2)c(C(=O)N2CCC[C@@H](C)[C@H]2CNc2ccc(C#N)cn2)c1 [Example A155, 6-((((2S,3R)-3-Methyl-1-(5-methyl-2-(1H-pyrazol-1-yl)benzoyl)piperidin-2-yl)methyl)amino)nicotinonitrile]
- inhibition at 10 µM (CYP3A4): 72%

SMILES: Cc1ccc(-c2cccnn2)c(C(=O)N2CCC[C@@H](C)[C@H]2CNc2ncc(C(F)(F)F)cn2)c1 [Example A198, ((2S,3R)-3-Methyl-2-(((5-(trifluoromethyl)pyrimidin-2-yl)amino)methyl)piperidin-1-yl)(5-methyl-2-(pyridazin-3-yl)phenyl)methanone]
- inhibition at 10 µM (CYP3A4): 51%

SMILES: COc1ccc(NC[C@@H]2[C@H](C)CCCN2C(=O)c2cc(C)ccc2-n2nccn2)nc1 [Example A126, ((2S,3R)-2-(((5-Methoxypyridin-2-yl)amino)methyl)-3-methylpiperidin-1-yl)(5-methyl-2-(2H-1,2,3-triazol-2-yl)phenyl)methanone]
- inhibition at 10 µM (CYP3A4): 56%

SMILES: Cc1ccc(NC[C@@H]2[C@H](C)CCCN2C(=O)c2cc(C)ccc2-n2nccn2)nc1 [Example A48, ((2S,3R)-3-Methyl-2-(((5-methylpyridin-2-yl)amino)methyl)piperidin-1-yl)(5-methyl-2-(2H-1,2,3-triazol-2-yl)phenyl)methanone]
- inhibition at 10 µM (CYP3A4): 74%

SMILES: COc1ncc(-c2ccc(C)cc2C(=O)N2CCC[C@@H](C)[C@H]2CNc2nc3cc(Cl)ccc3o2)cn1 [Example A39, ((2S,3R)-2-(((5-Chlorobenzo[d]oxazol-2-yl)amino)methyl)-3-methylpiperidin-1-yl) (2-(2-methoxypyrimidin-5-yl)-5-methylphenyl)methanone]
- inhibition at 10 µM (CYP3A4): 96%

SMILES: C[C@@H]1CCCN(C(=O)c2c(F)cccc2-c2ncccn2)[C@@H]1CNc1ccc(C(F)(F)F)cn1 [Example A241, (2-Fluoro-6-(pyrimidin-2-yl)phenyl)((2S,3R)-3-methyl-2-(((5-(trifluoromethyl)pyridin-2-yl)amino)methyl)piperidin-1-yl)methanone]
- inhibition at 10 µM (CYP3A4): 62%

SMILES: Cc1ccc(-c2cnn(C)c2)c(C(=O)N2CCC[C@@H](C)[C@H]2CNc2nnc(C(F)(F)F)s2)c1 [Example A103, ((2S,3R)-3-Methyl-2-(((5-(trifluoromethyl)-1,3,4-thiadiazol-2-yl)amino)methyl)piperidin-1-yl)(5-methyl-2-(1-methyl-1H-pyrazol-4-yl)phenyl)methanone]
- inhibition at 10 µM (CYP3A4): 95%

SMILES: C[C@@H]1CCCN(C(=O)c2cc(F)ccc2-n2nccn2)[C@@H]1CNc1ncc(C(F)(F)F)cn1 [Example A207, (5-Fluoro-2-(2H-1,2,3-triazol-2-yl)phenyl)((2S,3R)-3-methyl-2-(((5-(trifluoromethyl)pyrimidin-2-yl)amino)methyl)piperidin-1-yl)methanone]
- inhibition at 10 µM (CYP3A4): 44%

SMILES: Cc1ccc(-n2cc(C)nn2)c(C(=O)N2CCC[C@@H](C)[C@H]2CNc2ccc(C(F)(F)F)cn2)c1 [Example A113, ((2S,3R)-3-Methyl-2-(((5-(trifluoromethyl)pyridin-2-yl)amino)methyl)piperidin-1-yl)(5-methyl-2-(4-methyl-1H-1,2,3-triazol-1-yl)phenyl)methanone]
- inhibition at 10 µM (CYP3A4): 98%

SMILES: Cc1ccc(-c2cncs2)c(C(=O)N2CCC[C@@H](C)[C@H]2CNc2ccc(C(F)(F)F)cn2)c1 [Example A25, ((2S,3R)-3-Methyl-2-(((5-(trifluoromethyl)pyridin-2-yl)amino)methyl)piperidin-1-yl)(5-methyl-2-(thiazol-5-yl)phenyl)methanone]
- inhibition at 10 µM (CYP3A4): 99%

SMILES: Cc1ccc(-n2nccn2)c(C(=O)N2CCC(F)(F)C[C@H]2CNc2ccc(Cl)cn2)c1 [Example A210, (S)-(2-(((5-Chloropyridin-2-yl)amino)methyl)-4,4-difluoropiperidin-1-yl)(5-methyl-2-(2H-1,2,3-triazol-2-yl)phenyl)methanone]
- inhibition at 10 µM (CYP3A4): 76%

SMILES: Cc1ccc(-c2ccc(C)cc2C(=O)N2CCC[C@@H](C)[C@H]2CNc2ccc(C(F)(F)F)cn2)nc1 [Example A118, ((2S,3R)-3-Methyl-2-(((5-(trifluoromethyl)pyridin-2-yl)amino)methyl)piperidin-1-yl)(5-methyl-2-(5-methylpyridin-2-yl)phenyl)methanone]
- inhibition at 10 µM (CYP3A4): 95%

SMILES: Cc1ccc(-n2nccn2)c(C(=O)N2CCC[C@@H](C)[C@H]2CNc2ncc(Cl)cc2F)c1 [Example A173, ((2S,3R)-2-(((5-Chloro-3-fluoropyridin-2-yl)amino)methyl)-3-methylpiperidin-1-yl)(5-methyl-2-(2H-1,2,3-triazol-2-yl)phenyl)methanone]
- inhibition at 10 µM (CYP3A4): 81%

SMILES: Cc1ccc(-c2ccccn2)c(C(=O)N2CCC[C@@H](C)[C@H]2CNc2nc3cc(F)ccc3o2)c1 [Example A128, ((2S,3R)-2-(((5-Fluorobenzo[d]oxazol-2-yl)amino)methyl)-3-methylpiperidin-1-yl)(5-methyl-2-(pyridin-2-yl)phenyl)methanone]
- inhibition at 10 µM (CYP3A4): 88%

SMILES: Cc1cccc(C(=O)N2CCC[C@@H](C)[C@H]2CNc2ncc(C(F)(F)F)cn2)c1-n1nccn1 [Example A267, ((2S,3R)-3-Methyl-2-(((5-(trifluoromethyl)pyrimidin-2-yl)amino)methyl)piperidin-1-yl)(3-methyl-2-(2H-1,2,3-triazol-2-yl)phenyl)methanone]
- inhibition at 10 µM (CYP3A4): 65%

SMILES: Cc1ccc(-c2ccc(F)cc2)c(C(=O)N2CCC[C@@H](C)[C@H]2CNc2ccc(C(F)(F)F)cn2)n1 [Example A73, (3-(4-Fluorophenyl)-6-methylpyridin-2-yl)((2S,3R)-3-methyl-2-(((5-(trifluoromethyl)pyridin-2-yl)amino)methyl)piperidin-1-yl)methanone]
- inhibition at 10 µM (CYP3A4): 76%
